The values below come from ChEMBL document CHEMBL1143327, “Carbonic anhydrase inhibitors: inhibition studies of a coral secretory isoform with inorganic anions” (Bioorg Med Chem Lett, 2009).

The experiment concerns the target Carbonic anhydrase 4 (Homo sapiens, UniProt P22748).

pKi: −log10 of the molar value.

For orientation: pKi means the negative decadic logarithm of the Ki, by convention in mol/L. Read a low pKi as a large Ki.

Carbonic anhydrase 4, sequence (P22748 whole entry): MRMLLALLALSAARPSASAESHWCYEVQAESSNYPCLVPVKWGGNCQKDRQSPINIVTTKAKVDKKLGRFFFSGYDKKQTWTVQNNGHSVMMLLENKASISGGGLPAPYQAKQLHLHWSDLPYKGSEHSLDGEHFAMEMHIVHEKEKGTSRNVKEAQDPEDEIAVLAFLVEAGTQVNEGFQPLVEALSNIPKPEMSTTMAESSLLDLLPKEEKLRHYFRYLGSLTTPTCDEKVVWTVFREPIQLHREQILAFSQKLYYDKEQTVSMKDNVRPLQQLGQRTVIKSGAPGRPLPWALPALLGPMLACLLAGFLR

In turn, `OB(O)c1ccccc1` [PHENYLBORONIC ACID] had a pKi of 3.09. For `NS(=O)(=O)O` [SULFAMATE] the value was 4.05.
